In series [1] the test system is Pseudomonas aeruginosa PAO1. Nature of the series: Comparative experiment of drug resistance (serial passage, change of MIC). The series is classed as cell-based. The source says:
FIG. 1 illustrates a comparison of antimicrobial resistance of an antimicrobial peptide AS-hepc3(48-56) of Acanthopagrus schlegelii and antibiotic meropenem against Pseudomonas aeruginosa PAO1, wherein the abscissa represents time (days), and the ordinate represents a ratio of change of a minimum inhibition concentration (MIC) and an initial antimicrobial concentration.
1. Comparison of the antimicrobial peptide AS-hepc3(48-56) and antibiotic meropenem against Pseudomonas aeruginosa PAO1. Pseudomonas Aeruginosa PAO1 was purchased from the China General Microbiological Culture Collection Center, Institute of Microbiology, Chinese Academy of Sciences.
A detailed method is as follows:
(1) Preserved Pseudomonas aeruginosa PAO1 was streaked on MH plates and was cultured at 37° C. overnight;
(2) A single clone was screened and was cultured in MH liquid medium at 37° C. and 200 rpm to a logarithmic stage;
(3) The strain was corrected at 5000 g for 2 minutes, the strain was resuspended in 10 mM sodium phosphate buffer (pH=7.4), and the strain was finally diluted with a mixture of the 10 mM sodium phosphate buffer and the MH liquid medium to enable a final concentration of the stain to be 5×10^5 cfu/mL;
(4) Synthesized powder of the antimicrobial peptide AS-hepc3(48-56) was dissolved in sterile Milli-Q water, and a peptide concentration was diluted to 8 μM, 12 μM, 16 μM, 24 μM, 32 μM, 48 μM, 64 μM, or 96 μM in double ratios;
(5) Antibiotic meropenem powder was dissolved in sterile Milli-Q water to configure a 5 mg/mL reserved solution, filtered by a 0.22 μm filter membrane, and diluted to different work concentrations being 0.0625 μg/mL, 0.125 μg/mL, 0.25 μg/mL, 0.5 μg/mL, 1 μg/mL, 2 μg/mL, 4 μg/mL, 8 μg/mL, 16 μg/mL, 32 μg/mL, 48 μg/mL, 64 μg/mL, 96 μg/mL, 128 μg/mL, 192 μg/mL, 256 μg/mL, or 512 μg/mL; and
(6) On a 96-well cell culture plate, each test strain was arranged into a blank control group, a negative control group, and a test group, and three parallel groups of each test group were as follows: • a) Blank control group: 50 μL of test peptide sample and 50 μL of medium; • b) Negative control group: 50 μL of sterile Milli-Q water and 50 μL of strain suspension; and • c) Test group: 50 μL of the test peptide sample and 50 μL of the strain suspension.
The 96-well cell culture plate was placed in a 37° C. incubator and was cultured for 18-24 hours, and MIC results in the test group were observed. The strain having the maximum peptide concentration at which the growth of the strain could be observed was repeatedly diluted thousand-fold, and 50 μL was repeatedly taken for a next generation of antimicrobial experiments for 150 generations.

Series [2] deals with mouse hepatocytes (AML12). The series can be described thus: in vitro. It counts as cell-based. The source says:
(§1) FIGS. 2A and 2B illustrate cytotoxicity experimental result diagrams of antimicrobial peptide AS-hepc3(48-56) obtained by an MTS-PMS method, wherein FIG. 2A represents AML12 cells (alpha mouse liver 12 cells), FIG. 2B represents 293T cells, the abscissa represents an AS-hepc3(48-56) protein concentration (μM), and the ordinate represents a cell proliferation rate (%).
(§2) 1. Mouse hepatocytes (AML12) (mouse liver cells) and human kidney epithelial cells (293T) were selected to detect a cytotoxicity of the antimicrobial peptide AS-hepc3(48-56).
(§3) 2. A detailed method is as follows.
(§4) (6) Well-grown mouse hepatocytes (AML12) and human kidney epithelial cells (293T) were collected, a cell concentration was adjusted to 10^3-10^4 cells/mL, the cells were evenly blown, and 100 μL of strain suspension was placed in each well of a 96-well cell culture plate and was static cultured at a condition of 37° C. and […]. More than 50% of the strains were adhered to a wall.
(§5) (7) The medium is carefully sucked out, a corresponding medium comprising different concentrations (0 μM, 40 μM, or 80 μM) was added and was static cultured for 24 hours at a condition of 37° C. and […].
(§6) (8) After 20 μL of MTS-PMS solution was added and was incubated for 3 hours in the dark, an OD492 value (optical density reading at 492 nm wavelength) was detected by a microplate reader to evaluate the cytotoxicity of the antimicrobial peptide AS-hepc3(48-56).

Series [3] in a line: in vitro. It counts as cell-based, human.
Text: as §1, §2, §3, §4, §5, §6

In series [4] the test system is human kidney epithelial cells (293T). Nature of the series: in vitro. The series is classed as cell-based.
Text: as §1, §2, §3, §4, §5, §6

Series [5] relates to drug-resistant clinical Klebsiella pneumoniae isolate QZ18106. It counts as cell-based. To be noted: K. pneumoniae QZ18106.
Text: (§7) 1. Strains were as follows: Pseudomonas aeruginosa PAO1, drug-resistant clinical Pseudomonas aeruginosa isolates QZ19121, QZ19122, QZ19123, QZ19124, and QZ19125, drug-resistant clinical Acinetobacter baumannii isolates QZ18050 and QZ18055, clinical isolation of resistant Staphylococcus aureus QZ18090 and QZ18091, drug-resistant clinical Klebsiella pneumoniae isolate QZ18106, and drug-resistant clinical Escherichia coli isolates QZ18109 and QZ18110. Pseudomonas aeruginosa PAO1 was purchased from the China General Microbiological Culture Collection Center, Institute of Microbiology, Chinese Academy of Sciences, and the clinical isolates were from the Laboratory of Second Affiliated Hospital of Fujian Medical University.
as §3
(§8) (1) Preserved strains were streaked on MH plates (Mueller-Hinton agar plates) and were cultured at 37° C. overnight;
(§9) (2) A single clone was screened and was cultured in a MH liquid medium (Mueller-Hinton agar liquid medium) at 37° C. and 200 rpm (revolutions per minute) to a logarithmic stage;
(§10) (3) The strains were collected at 5000 g (i.e., a 5000 g centrifugal force) for 2 minutes, the strains were resuspended with a 10 mM (mmol/L) sodium phosphate buffer (pH=7.4), and the strains were finally diluted with the MH liquid medium to enable a final concentration of the strains to be 5×10^5 cfu/mL;
(§11) (4) Synthesized powder of the antimicrobial peptide AS-hepc3(48-56) was dissolved in sterile Milli-Q water, and a peptide concentration (i.e., a concentration of the antimicrobial peptide AS-hepc3(48-56)) was diluted to 2 μM, 4 μM, 8 μM, 16 μM, 32 μM, or 64 μM in double ratios; and
(§12) (5) On a polypropylene sterile 96-well culture plate, each test strain was arranged into a blank control group, a negative control group, and a test group, and three parallel groups of each test group were as follows: • a) Blank control group: 50 μL of test peptide sample (i.e., the antimicrobial peptide AS-hepc3(48-56)) and 50 μL of medium (i.e., the Mueller-Hinton agar liquid medium); • b) Negative control group: 50 μL of sterile Milli-Q water and 50 μL of strain suspension; and • c) Test group: 50 μL of test peptide sample and 50 μL of the strain suspension.
(§13) The polypropylene sterile 96-well culture plate was placed in a 37° C. incubator for 18-24 hours, and MIC results in the test group were observed. After the test group was pipetted and mixed, an appropriate amount of the strain was drawn and spread on the MH plate and was cultured at 37° C. overnight, and MBC results were observed.
(§14) Annotations: MIC: minimum inhibitory concentration (μM), which is represented by a-b; a is a maximum peptide concentration at which a growth of the strain can be observed by naked eyes, and b is a minimum peptide concentration at which no growth of the strain can be observed by the naked eyes. MBC: Minimum bactericidal concentration (μM), which is a concentration that kills 99.9% of microbes.

Series [6] concerns drug-resistant clinical Pseudomonas aeruginosa isolate QZ19122. It counts as cell-based. As to conditions: P. aeruginosa QZ19122.
Text: as §7, §3, §8, §9, §10, §11, §12, §13, §14

Series [7] deals with drug-resistant clinical Escherichia coli isolate QZ18109. It counts as cell-based. To be noted: E. coli QZ18109.
Text: as §7, §3, §8, §9, §10, §11, §12, §13, §14

The subject of series [8] is resistant Staphylococcus aureus QZ18090. The series is classed as cell-based. To be noted: S. aureus QZ18090.
Text: as §7, §3, §8, §9, §10, §11, §12, §13, §14

In series [9] the test system is drug-resistant clinical Escherichia coli isolate QZ18110. It counts as cell-based. To be noted: E. coli QZ18110.
Text: as §7, §3, §8, §9, §10, §11, §12, §13, §14

The test system of series [10] is drug-resistant clinical Pseudomonas aeruginosa isolate QZ19121. It counts as cell-based. To be noted: P. aeruginosa QZ19121.
Text: as §7, §3, §8, §9, §10, §11, §12, §13, §14

Series [11] concerns drug-resistant clinical Pseudomonas aeruginosa isolate QZ19125. It counts as cell-based. As to conditions: P. aeruginosa QZ19125.
Text: as §7, §3, §8, §9, §10, §11, §12, §13, §14

The test system of series [12] is drug-resistant clinical Acinetobacter baumannii isolate QZ18055. The series is classed as cell-based. As to conditions: A. baumannii QZ18055.
Text: as §7, §3, §8, §9, §10, §11, §12, §13, §14

Series [13] concerns Pseudomonas aeruginosa PAO1. The series is classed as cell-based.
Text: as §7, §3, §8, §9, §10, §11, §12, §13, §14

In series [14] the test system is drug-resistant clinical Acinetobacter baumannii isolate QZ18050. The series is classed as cell-based. To be noted: A. baumannii QZ18050.
Text: as §7, §3, §8, §9, §10, §11, §12, §13, §14

Series [15] relates to drug-resistant clinical Pseudomonas aeruginosa isolate QZ19124. The series is classed as cell-based. To be noted: P. aeruginosa QZ19124.
Text: as §7, §3, §8, §9, §10, §11, §12, §13, §14

In series [16] the test system is drug-resistant clinical Pseudomonas aeruginosa isolate QZ19123. It counts as cell-based. To be noted: P. aeruginosa QZ19123.
Text: as §7, §3, §8, §9, §10, §11, §12, §13, §14

Series [17] concerns resistant Staphylococcus aureus QZ18091. It counts as cell-based. As to conditions: S. aureus QZ18091.
Text: as §7, §3, §8, §9, §10, §11, §12, §13, §14

[18] abbreviates: human, 293T cells (human kidney epithelial cells).
[19] abbreviates: mouse, AML12 cells (mouse hepatocytes).

Converted amounts (≈) assume the structure as drawn. Peptide text beside a SMILES is read from it.

The results in this text go back to patent US11299514B2, “Antimicrobial peptide AS-hepc3(48-56) of Acanthopagrus schlegelii and method thereof” (Xiamen University, priority 2019, dated 2022).

Turning to `N=C(N)NCCC[C@H](NC(=O)[C@H](CS)NC(=O)[C@H](CCCNC(=N)N)NC(=O)[C@H](CCCNC(=N)N)NC(=O)[C@H](CCCNC(=N)N)NC(=O)[C@@H](N)CCCNC(=N)N)C(=O)N[C@@H](Cc1ccccc1)C(=O)N[C@@H](CS)C(=O)N[C@@H](CS)C(=O)O` [AS-hepc3(48-56), Arg-Arg-Arg-Arg-Cys-Arg-Phe-Cys-Cys] (H-RRRRCRFCC-OH; N-terminus and C-terminus assumed), the “anti-Pseudomonas aeruginosa MIC value relative to initial MIC value” in series [1] (after 150 days of continuous use) is reported as “twice”. The “cytotoxicity (in words)” value in series [2] and in [4] was “no cytotoxicity” each time. Besides, the viability at 24 h, 40 µM in series [3] (setting [18]) and in [3] (setting [19]) was greater than 95% each time. The viability at 24 h, 80 µM in series [3] (setting [18]) and in [3] (setting [19]) was greater than 95% throughout. Besides, the MBC in series [5] is greater than 32 µM; in [6], 16 µM (≈ 20.1 µg/mL); in series [7] it was 16 µM (≈ 20.1 µg/mL); in series [8] it was 8 µM (≈ 10 µg/mL); in series [9] it was 8 µM (≈ 10 µg/mL); in series [10] it was 16 µM (≈ 20.1 µg/mL). Besides, the minimal bactericidal concentration (MBC) is 16 µM (≈ 20.1 µg/mL) in series [11]; greater than 32 µM in series [12]; 8 µM (≈ 10 µg/mL) in [13]; greater than 32 µM in series [14]; 16 µM (≈ 20.1 µg/mL) in [15]; 16 µM (≈ 20.1 µg/mL) in [16]. For the same molecule, in series [17], the MBC was found to be 8 µM (≈ 10 µg/mL). Besides, the MIC is greater than 32 µM in series [5]; 4 to 8 µM in [6]; 4 to 8 µM in series [7]; 4 to 8 µM in series [8]; 4 to 8 µM in series [9]; 4 to 8 µM in series [10]. In addition, the minimal inhibitory concentration (MIC) in series [11] was 8 to 16 µM; in series [12] it was greater than 32 µM; in [13], 4 to 8 µM; in [14], greater than 32 µM; in series [15], 4 to 8 µM; in series [16], 4 to 8 µM. Also, the MIC in series [17] was 4 to 8 µM.

As to `C[C@@H](O)[C@H]1C(=O)N2C(C(=O)O)=C(S[C@@H]3CN[C@H](C(=O)N(C)C)C3)[C@H](C)[C@H]12` [meropenem], the entries for the “anti-Pseudomonas aeruginosa MIC value relative to initial MIC value” in [1] (after 3 days of continuous use), in series [1] (after 10 days of continuous use) and in series [1] (after 90 days of use) were 4 times, 16 times and 1024 times, respectively.
